# Results from PubChem BioAssay (NCI).
#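 Dose response: 5 concentrations. Exposure: 48 h. Format: 96-well plates. Endpoint: linear interpolation; highest concentration if not reached. TGI: total growth inhibition.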
# Columns and labels:
# Assay in all cases: NCI tumour cell line growth inhibition, 48 h
# HOP-62 NSCLC = test system: HOP-62 NSCLC
# SK-MEL-2 melanoma = test system: SK-MEL-2 melanoma
# SK-MEL-28 melanoma = test system: SK-MEL-28 melanoma
# ACHN renal = test system: ACHN renal
# OVCAR-5 ovarian = test system: OVCAR-5 ovarian
# NCI-H23 lung = test system: NCI-H23 lung
# SK-MEL-5 melanoma = test system: SK-MEL-5 melanoma
# IGROV1 ovarian = test system: IGROV1 ovarian
# HCT-15 colon = test system: HCT-15 colon
# SF-295 CNS = test system: SF-295 CNS
# EKVX NSCLC = test system: EKVX NSCLC
# SR leukemia = test system: SR leukemia
# SF-268 CNS = test system: SF-268 CNS
# MDA-N = test system: MDA-N
# SW-620 colon = test system: SW-620 colon
# OVCAR-8 ovarian = test system: OVCAR-8 ovarian
# NCI/ADR-RES ovarian = test system: NCI/ADR-RES ovarian
# CAKI-1 renal = test system: CAKI-1 renal
# A498 renal = test system: A498 renal
# M14 melanoma = test system: M14 melanoma
# PC-3 prostate = test system: PC-3 prostate
# SNB-75 CNS = test system: SNB-75 CNS
# BT-549 breast = test system: BT-549 breast
# NCI-H226 lung = test system: NCI-H226 lung
# UACC-62 melanoma = test system: UACC-62 melanoma
# TK-10 renal = test system: TK-10 renal
# OVCAR-3 ovarian = test system: OVCAR-3 ovarian
# LOX IMVI melanoma = test system: LOX IMVI melanoma
# MDA-MB-231 breast = test system: MDA-MB-231 breast
# MCF7 breast = test system: MCF7 breast
# COLO 205 colon = test system: COLO 205 colon
# 786-0 renal = test system: 786-0 renal
# HCT-116 colon = test system: HCT-116 colon
# DU-145 prostate = test system: DU-145 prostate
# HOP-92 NSCLC = test system: HOP-92 NSCLC
# RPMI-8226 leukemia = test system: RPMI-8226 leukemia
# CCRF-CEM leukemia = test system: CCRF-CEM leukemia
# MDA-MB-435 = test system: MDA-MB-435
# SN12C renal = test system: SN12C renal
# HT29 colon = test system: HT29 colon
# T-47D breast = test system: T-47D breast
# A549 NSCLC = test system: A549 NSCLC
# RXF 393 renal = test system: RXF 393 renal
# HS 578T breast = test system: HS 578T breast
# UACC-257 melanoma = test system: UACC-257 melanoma
# SNB-19 CNS = test system: SNB-19 CNS
# OVCAR-4 ovarian = test system: OVCAR-4 ovarian
# NCI-H522 lung = test system: NCI-H522 lung
# UO-31 renal = test system: UO-31 renal
# MALME-3M melanoma = test system: MALME-3M melanoma
# MOLT-4 leukemia = test system: MOLT-4 leukemia
# HL-60(TB) leukemia = test system: HL-60(TB) leukemia
# KM12 colon = test system: KM12 colon
# U251 CNS = test system: U251 CNS
# K-562 leukemia = test system: K-562 leukemia
# SK-OV-3 ovarian = test system: SK-OV-3 ovarian
# SF-539 CNS = test system: SF-539 CNS
# NCI-H460 lung = test system: NCI-H460 lung
compound,measurement,setting,value
O=S(=O)(c1ccc(Br)cc1)N1CCN(S(=O)(=O)c2ccc(Br)cc2)CC1,TGI,HOP-62 NSCLC,> 100 µM
same,TGI,SK-MEL-2 melanoma,> 100 µM
same,TGI,SK-MEL-28 melanoma,> 100 µM
same,TGI,ACHN renal,> 100 µM
same,TGI,OVCAR-5 ovarian,> 100 µM
same,TGI,NCI-H23 lung,> 100 µM
same,TGI,SK-MEL-5 melanoma,> 100 µM
same,TGI,IGROV1 ovarian,> 100 µM
same,TGI,HCT-15 colon,> 100 µM
same,TGI,SF-295 CNS,> 100 µM
same,TGI,EKVX NSCLC,> 100 µM
same,TGI,SR leukemia,> 100 µM
same,TGI,SF-268 CNS,> 100 µM
same,TGI,MDA-N,> 100 µM
same,TGI,SW-620 colon,> 100 µM
same,TGI,OVCAR-8 ovarian,> 100 µM
same,TGI,NCI/ADR-RES ovarian,> 100 µM
same,TGI,CAKI-1 renal,> 100 µM
same,TGI,A498 renal,> 100 µM
same,TGI,M14 melanoma,> 100 µM
same,TGI,PC-3 prostate,> 100 µM
same,TGI,SNB-75 CNS,> 100 µM
same,TGI,BT-549 breast,> 100 µM
same,TGI,NCI-H226 lung,> 100 µM
same,TGI,UACC-62 melanoma,> 100 µM
same,TGI,TK-10 renal,> 100 µM
same,TGI,OVCAR-3 ovarian,> 100 µM
same,TGI,LOX IMVI melanoma,> 100 µM
same,TGI,MDA-MB-231 breast,> 100 µM
same,TGI,MCF7 breast,> 100 µM
same,TGI,COLO 205 colon,> 100 µM
same,TGI,786-0 renal,> 100 µM
same,TGI,HCT-116 colon,> 100 µM
same,TGI,DU-145 prostate,> 100 µM
same,TGI,HOP-92 NSCLC,> 100 µM
same,TGI,RPMI-8226 leukemia,> 100 µM
same,TGI,CCRF-CEM leukemia,> 100 µM
same,TGI,MDA-MB-435,> 100 µM
same,TGI,SN12C renal,> 100 µM
same,TGI,HT29 colon,> 100 µM
same,TGI,T-47D breast,> 100 µM
same,TGI,A549 NSCLC,> 100 µM
same,TGI,RXF 393 renal,> 100 µM
same,TGI,HS 578T breast,> 100 µM
same,TGI,UACC-257 melanoma,> 100 µM
same,TGI,SNB-19 CNS,> 100 µM
same,TGI,OVCAR-4 ovarian,> 100 µM
same,TGI,NCI-H522 lung,> 100 µM
same,TGI,UO-31 renal,> 100 µM
same,TGI,MALME-3M melanoma,> 100 µM
same,TGI,MOLT-4 leukemia,26.7 µM
same,TGI,HL-60(TB) leukemia,> 100 µM
same,TGI,KM12 colon,> 100 µM
same,TGI,U251 CNS,> 100 µM
same,TGI,K-562 leukemia,> 100 µM
same,TGI,SK-OV-3 ovarian,> 100 µM
COC(=O)C(Cc1ccccc1)NP(=O)(O)OCC1OC(n2cc(I)c(=O)[nH]c2=O)CC1O (stereo unspecified),TGI,HOP-62 NSCLC,> 100 µM
same,TGI,SK-MEL-28 melanoma,> 100 µM
same,TGI,ACHN renal,> 100 µM
same,TGI,NCI-H23 lung,> 100 µM
same,TGI,SK-MEL-5 melanoma,> 100 µM
same,TGI,IGROV1 ovarian,> 100 µM
same,TGI,HCT-15 colon,> 100 µM
same,TGI,SF-295 CNS,> 100 µM
same,TGI,EKVX NSCLC,> 100 µM
same,TGI,SR leukemia,> 100 µM
same,TGI,SF-268 CNS,> 100 µM
same,TGI,MDA-N,> 100 µM
same,TGI,SW-620 colon,> 100 µM
same,TGI,SF-539 CNS,> 100 µM
same,TGI,OVCAR-8 ovarian,> 100 µM
same,TGI,NCI/ADR-RES ovarian,> 100 µM
same,TGI,CAKI-1 renal,> 100 µM
same,TGI,A498 renal,> 100 µM
same,TGI,M14 melanoma,> 100 µM
same,TGI,PC-3 prostate,> 100 µM
same,TGI,SNB-75 CNS,> 100 µM
same,TGI,NCI-H460 lung,> 100 µM
same,TGI,BT-549 breast,> 100 µM
same,TGI,NCI-H226 lung,> 100 µM
same,TGI,UACC-62 melanoma,> 100 µM
same,TGI,TK-10 renal,> 100 µM
same,TGI,OVCAR-3 ovarian,> 100 µM
same,TGI,LOX IMVI melanoma,> 100 µM
same,TGI,MDA-MB-231 breast,> 100 µM
same,TGI,MCF7 breast,> 100 µM
same,TGI,COLO 205 colon,> 100 µM
same,TGI,786-0 renal,> 100 µM
same,TGI,HCT-116 colon,> 100 µM
same,TGI,DU-145 prostate,> 100 µM
same,TGI,HOP-92 NSCLC,> 100 µM
same,TGI,RPMI-8226 leukemia,> 100 µM
same,TGI,CCRF-CEM leukemia,> 100 µM
same,TGI,MDA-MB-435,> 100 µM
same,TGI,SN12C renal,> 100 µM
same,TGI,HT29 colon,> 100 µM
same,TGI,T-47D breast,> 100 µM
same,TGI,A549 NSCLC,> 100 µM
same,TGI,HS 578T breast,> 100 µM
same,TGI,UACC-257 melanoma,> 100 µM
same,TGI,SNB-19 CNS,> 100 µM
same,TGI,OVCAR-4 ovarian,> 100 µM
same,TGI,NCI-H522 lung,> 100 µM
same,TGI,UO-31 renal,> 100 µM
same,TGI,MALME-3M melanoma,> 100 µM
same,TGI,MOLT-4 leukemia,> 100 µM
same,TGI,HL-60(TB) leukemia,> 100 µM
same,TGI,KM12 colon,> 100 µM
same,TGI,U251 CNS,> 100 µM
same,TGI,K-562 leukemia,> 100 µM
same,TGI,SK-OV-3 ovarian,> 100 µM
